Structures are written as SMILES.

The results in this text go back to patent publication US20110105492A1, “ARYL SUBSTITUTED ARYLINDENOPYRIMIDINES AND THEIR USE AS HIGHLY SELECTIVE ADENOSINE A2a RECEPTOR ANTAGONISTS” (priority 2009, published 2011).

Assay [1] deals with T1, human adenosine A2A receptor (Homo sapiens, UniProt P29274).
T1 construct: expressed in transfected cells; host or cells: CHO-K1 cells with a cAMP inducible beta-galactosidase reporter gene
The assay is described as follows: Adenosine A2A Receptor Functional Assay (A2AGAL2). The class given is cell-based. The following applies: for IC50: CHO-K1 cells overexpressing human A2A, cAMP inducible beta-galactosidase reporter, antagonist vs 15 nM NECA challenge; for A1/A2A: ratio of A1Gal2 to A2AGal2 value. On the procedure: Adenosine A2A Receptor Functional Assay (A2AGAL2)
To initiate the functional assay, cryopreserved CHO-K1 cells overexpressing the human adenosine A2A receptor and containing a cAMP inducible beta-galactosidase reporter gene were thawed, centrifuged, DMSO containing media removed, and then seeded with fresh culture media into clear 384-well tissue culture treated plates (BD #353961) at a concentration of 10K cells/well. Prior to assay, these plates were cultured for two days at 37° C., 5% CO2, 90% Rh. On the day of the functional assay, culture media was removed and replaced with 45 μL assay medium (Hams/F-12 Modified (Mediatech # 10-080CV) supplemented w/0.1% BSA). Test compounds were diluted and 11 point curves created at a 1000× concentration in 100% DMSO. Immediately after addition of assay media to the cell plates, 50 nL of the appropriate test compound antagonist or agonist control curves were added to cell plates using a Cartesian Hummingbird. Compound curves were allowed to incubate at room temperature on cell plates for approximately 15 minutes before addition of a 15 nM NECA (Sigma E2387) agonist challenge (5 μL volume). A control curve of NECA, a DMSO/Media control, and a single dose of Forskolin (Sigma F3917) were also included on each plate. After additions, cell plates were allowed to incubate at 37° C., 5% CO2, 90% Rh for 5.5-6 hours. After incubation, media were removed, and cell plates were washed 1×50 μL with DPBS w/o Ca & Mg (Mediatech 21-031-CV). Into dry wells, 20 μL of 1× Reporter Lysis Buffer (Promega E3971 (diluted in dH2O from 5× stock)) was added to each well and plates frozen at −20° C. overnight. For β-galactosidase enzyme colorimetric assay, plates were thawed out at room temperature and 20 μL 2× assay buffer (Promega) was added to each well. Color was allowed to develop at 37° C., 5% CO2, 90% Rh for 1-1.5 hours or until reasonable signal appeared. The colorimetric reaction was stopped with the addition of 60 μL/well 1M sodium carbonate. Plates were counted at 405 nm on a SpectraMax Microplate Reader (Molecular Devices). Data was analyzed in Microsoft Excel and IC/EC50 curves were fit using a standardized macro.

The target in assay [2] is T2, human adenosine A1 receptor (Homo sapiens, UniProt P30542).
T2 construct: expressed in transfected cells; host or cells: CHO-K1 cells with a cAMP inducible beta-galactosidase reporter gene
T2 sequence (P30542 1-326): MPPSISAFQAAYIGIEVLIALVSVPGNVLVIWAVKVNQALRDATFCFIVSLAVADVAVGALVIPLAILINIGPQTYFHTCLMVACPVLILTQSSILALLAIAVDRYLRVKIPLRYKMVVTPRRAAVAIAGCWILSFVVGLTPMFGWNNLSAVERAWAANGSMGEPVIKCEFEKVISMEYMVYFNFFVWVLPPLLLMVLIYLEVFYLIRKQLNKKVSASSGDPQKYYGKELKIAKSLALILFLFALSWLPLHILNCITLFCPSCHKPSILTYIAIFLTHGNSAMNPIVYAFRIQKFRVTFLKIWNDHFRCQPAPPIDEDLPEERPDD
The experiment in a line: Adenosine A1 Receptor Functional Assay (A1GAL2). The class given is cell-based. The note with it: CHO-K1 cells overexpressing human A1, cAMP inducible beta-galactosidase reporter, antagonist vs 4 nM r-PIA/1 uM Forskolin challenge. The method, then:
Adenosine A1 Receptor Functional Assay (A1GAL2)
To initiate the functional assay, cryopreserved CHO-K1 cells overexpressing the human adenosine A1 receptor and containing a cAMP inducible beta-galactosidase reporter gene were thawed, centrifuged, DMSO containing media removed, and then seeded with fresh culture media into clear 384-well tissue culture treated plates (BD #353961) at a concentration of 10K cells/well. Prior to assay, these plates were cultured for two days at 37° C., 5% CO2, 90% Rh. On the day of the functional assay, culture media was removed and replaced with 45 μL assay medium (Hams/F-12 Modified (Mediatech # 10-080CV) supplemented w/0.1% BSA). Test compounds were diluted and 11 point curves created at a 1000× concentration in 100% DMSO. Immediately after addition of assay media to the cell plates, 50 nL of the appropriate test compound antagonist or agonist control curves were added to cell plates using a Cartesian Hummingbird. Compound curves were allowed to incubate at room temperature on cell plates for approximately 15 minutes before addition of a 4 nM r-PIA (Sigma P4532)/1 uM Forskolin (Sigma F3917) agonist challenge (5 μL volume). A control curve of r-PIA in 1 uM Forskolin, a DMSO/Media control, and a single dose of Forskolin were also included on each plate. After additions, cell plates were allowed to incubate at 37° C., 5% CO2, 90% Rh for 5.5-6 hours. After incubation, media was removed, and cell plates were washed 1×50 μL with DPBS w/o Ca & Mg (Mediatech 21-031-CV). Into dry wells, 20 μL of 1× Reporter Lysis Buffer (Promega E3971 (diluted in dH2O from 5× stock)) was added to each well and plates frozen at −20° C. overnight. For β-galactosidase enzyme colorimetric assay, plates were thawed out at room temperature and 20 μL 2× assay buffer (Promega) was added to each well. Color was allowed to develop at 37° C., 5% CO2, 90% Rh for 1-1.5 hours or until reasonable signal appeared. The colorimetric reaction was stopped with the addition of 60 μL/well 1M sodium carbonate. Plates were counted at 405 nm on a SpectraMax Microplate Reader (Molecular Devices). Data was analyzed in Microsoft Excel and IC/EC50 curves were fit using a standardized macro.

T1 sequence (P29274 whole entry): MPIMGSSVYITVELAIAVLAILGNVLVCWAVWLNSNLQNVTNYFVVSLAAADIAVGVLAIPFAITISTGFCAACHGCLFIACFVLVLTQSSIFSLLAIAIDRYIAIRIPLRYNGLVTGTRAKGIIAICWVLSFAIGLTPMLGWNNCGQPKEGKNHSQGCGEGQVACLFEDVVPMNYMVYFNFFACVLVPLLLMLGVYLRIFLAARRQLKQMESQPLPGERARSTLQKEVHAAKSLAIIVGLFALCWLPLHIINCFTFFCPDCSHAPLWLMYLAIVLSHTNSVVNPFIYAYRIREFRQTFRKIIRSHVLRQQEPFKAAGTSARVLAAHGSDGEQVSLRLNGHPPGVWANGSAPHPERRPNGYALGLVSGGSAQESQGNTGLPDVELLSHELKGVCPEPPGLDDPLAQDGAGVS

For `Nc1nc(-c2ccc(F)cc2)c2c(n1)-c1c(cccc1-c1ccc(N3CCN(CCC(F)(F)F)CC3)cc1)C2=O` [Example 1, 2-Amino-4-(4-fluoro-phenyl)-9-{4-[4-(3,3,3-trifluoro-propyl)-piperazin-1-yl]-phenyl}-indeno[1,2-d]pyrimidin-5-one], in assay [1], the IC50 was found to be 0.0018 µM and the A1/A2A is listed as 3055.56. In addition, in assay [2], the IC50 was 5.5 µM.
As to `CC(C)CN1CCN(c2ccc(-c3cccc4c3-c3nc(N)nc(-c5ccc(F)cc5)c3C4=O)cc2)CC1` [Example 2, 2-Amino-4-(4-fluoro-phenyl)-9-[4-(4-isobutyl-piperazin-1-yl)-phenyl]-indeno[1,2-d]pyrimidin-5-one], the IC50 came out at 0.0071 µM in assay [1] and 4.2 µM in assay [2]. Further, in assay [1], the A1/A2A amounted to 591.549.
`Nc1nc(-c2ccc(F)cc2)c2c(n1)-c1c(cccc1-c1cccc(F)c1)C2=O` [Example 3, 2-Amino-4-(4-fluoro-phenyl)-9-(3-fluoro-phenyl)-indeno[1,2-d]pyrimidin-5-one]: the IC50 in assay [1] worked out at 0.026 µM; in assay [2], 8.9 µM. Moreover, the A1/A2A in assay [1] was found to be 342.308.
The matching figures for `Nc1nc(-c2ccc(F)cc2)c2c(n1)-c1c(cccc1-c1ccc(N3CCN(Cc4ccccc4)CC3)cc1)C2=O` [Example 4, 2-Amino-9-[4-(4-benzyl-piperazin-1-yl)-phenyl]-4-(4-fluoro-phenyl)-indeno[1,2-d]pyrimidin-5-one]: 0.01 µM, 3.1 µM and 310.
The matching figures for `CCC(CC)N1CCN(c2ccc(-c3cccc4c3-c3nc(N)nc(-c5ccc(F)cc5)c3C4=O)cc2)CC1` [Example 5, 2-Amino-9-{4-[4-(1-ethyl-propyl)-piperazin-1-yl]-phenyl}-4-(4-fluoro-phenyl)-indeno[1,2-d]pyrimidin-5-one]: 0.023 µM, 4.2 µM and 182.609.
The corresponding values for `CCC(C)N1CCN(c2ccc(-c3cccc4c3-c3nc(N)nc(-c5ccc(F)cc5)c3C4=O)cc2)CC1` (stereo not drawn) [Example 6, 2-Amino-9-[4-(4-sec-butyl-piperazin-1-yl)-phenyl]-4-(4-fluoro-phenyl)-indeno[1,2-d]pyrimidin-5-one] are 0.0098 µM, 1.4 µM and 142.857.
Consider `Nc1nc(-c2ccc(F)cc2)c2c(n1)-c1c(cccc1-c1ccc(N3CCN(CC4CC4)CC3)cc1)C2=O` [Example 7, 2-Amino-9-[4-(4-cyclopropylmethyl-piperazin-1-yl)-phenyl]-4-(4-fluoro-phenyl)-indeno[1,2-d]pyrimidin-5-one], for which, in assay [1], half-maximal inhibition (IC50) required 0.0083 µM and the A1/A2A came out at 131.69. Further, half-maximal inhibition in assay [2] (IC50) required 1.1 µM.
As to `COCCN1CCN(c2ccc(-c3cccc4c3-c3nc(N)nc(-c5ccc(F)cc5)c3C4=O)cc2)CC1` [Example 8, 2-Amino-4-(4-fluoro-phenyl)-9-{4-[4-(2-methoxy-ethyl)-piperazin-1-yl]-phenyl}-indeno[1,2-d]pyrimidin-5-one], in assay [1], the 50% inhibitory concentration (IC50) is 0.0018 µM and the A1/A2A was 127.778. Besides, the IC50 in assay [2] came to 0.23 µM.
Regarding `CC(C)N1CCN(c2ccc(-c3cccc4c3-c3nc(N)nc(-c5ccc(F)cc5)c3C4=O)cc2)CC1` [Example 9, 2-Amino-4-(4-fluoro-phenyl)-9-[4-(4-isopropyl-piperazin-1-yl)-phenyl]-indeno[1,2-d]pyrimidin-5-one], the IC50 in assay [1] is 0.016 µM; in assay [2] it was 1.8 µM. The A1/A2A in assay [1] is listed as 112.5.
With `N#Cc1ccc(-c2cccc3c2-c2nc(N)nc(-c4ccc(F)cc4)c2C3=O)cc1` [Example 10, 4-[2-Amino-4-(4-fluoro-phenyl)-5-oxo-5H-indeno[1,2-d]pyrimidin-9-yl]-benzonitrile], in assay [1], the IC50 came to 0.0026 µM and the A1/A2A came to 103.846. Moreover, half-maximal inhibition in assay [2] (IC50) required 0.27 µM.
`CC(C)CCN1CCN(c2ccc(-c3cccc4c3-c3nc(N)nc(-c5ccc(F)cc5)c3C4=O)cc2)CC1` [Example 11, 2-Amino-4-(4-fluoro-phenyl)-9-{4-[4-(3-methyl-butyl)-piperazin-1-yl]-phenyl}-indeno[1,2-d]pyrimidin-5-one]: in assay [1], the IC50 was found to be 0.011 µM and the A1/A2A is recorded as 100. For the same compound, in assay [2], 1.1 µM corresponded to half-maximal inhibition (IC50).
In the case of `CCN1CCN(c2ccc(-c3cccc4c3-c3nc(N)nc(-c5ccc(F)cc5)c3C4=O)cc2)CC1` [Example 12, 2-Amino-9-[4-(4-ethyl-piperazin-1-yl)-phenyl]-4-(4-fluoro-phenyl)-indeno[1,2-d]pyrimidin-5-one], in assay [1], half-maximal inhibition (IC50) required 0.01 µM and the A1/A2A was determined as 76. In assay [2], this compound displayed a 50% inhibitory concentration (IC50) of 0.76 µM.
Regarding `Nc1nc(-c2ccc(F)cc2)c2c(n1)-c1c(cccc1-c1ccc(OCCN3CCOCC3)cc1)C2=O` [Example 13, 2-Amino-4-(4-fluoro-phenyl)-9-[4-(2-morpholin-4-yl-ethoxy)-phenyl]-indeno[1,2-d]pyrimidin-5-one], in assay [1], the IC50 came out at 0.0039 µM and the A1/A2A is 69.2308. Further, it took 0.27 µM to reach half-maximal inhibition in assay [2] (IC50).
The matching figures for `Nc1nc(-c2ccccc2)c2c(n1)-c1c(cccc1-c1ccccc1)C2=O` [Example 14, 2-Amino-4,9-diphenyl-indeno[1,2-d]pyrimidin-5-one]: 0.0086 µM, 66.2791 and 0.57 µM.
The matching figures for `CCCN1CCN(c2ccc(-c3cccc4c3-c3nc(N)nc(-c5ccc(F)cc5)c3C4=O)cc2)CC1` [Example 15, 2-Amino-4-(4-fluoro-phenyl)-9-[4-(4-propyl-piperazin-1-yl)-phenyl]-indeno[1,2-d]pyrimidin-5-one]: 0.0087 µM, 59.7701 and 0.52 µM.
In the case of `Cc1cccc(-c2cccc3c2-c2nc(N)nc(-c4ccc(F)cc4)c2C3=O)c1` [Example 16, 2-Amino-4-(4-fluoro-phenyl)-9-m-tolyl-indeno[1,2-d]pyrimidin-5-one], in assay [1], the IC50 turned out to be 0.031 µM and the A1/A2A was 58.0645. Moreover, in assay [2], half-maximal inhibition (IC50) was put at 1.8 µM.
The matching figures for `COc1ccc(-c2cccc3c2-c2nc(N)nc(-c4ccccc4)c2C3=O)cc1` [Example 17, 2-Amino-9-(4-methoxy-phenyl)-4-phenyl-indeno[1,2-d]pyrimidin-5-one]: 0.0063 µM, 52.381 and 0.33 µM.
